Assay: pKa of lipid
Assay type: physicochemical

For `CCCCCCCCCCCCCCCCCCC(CCCCCCCCCCCCCCCCCC)OC(=O)CCCN(C)C` [compound 111], the pKa was > 7.4.
